Assay [1] has as its target T1, CYP24 (Homo sapiens, UniProt Q07973).
T1 construct: expressed in transfected cells
T1 sequence (Q07973 36-514): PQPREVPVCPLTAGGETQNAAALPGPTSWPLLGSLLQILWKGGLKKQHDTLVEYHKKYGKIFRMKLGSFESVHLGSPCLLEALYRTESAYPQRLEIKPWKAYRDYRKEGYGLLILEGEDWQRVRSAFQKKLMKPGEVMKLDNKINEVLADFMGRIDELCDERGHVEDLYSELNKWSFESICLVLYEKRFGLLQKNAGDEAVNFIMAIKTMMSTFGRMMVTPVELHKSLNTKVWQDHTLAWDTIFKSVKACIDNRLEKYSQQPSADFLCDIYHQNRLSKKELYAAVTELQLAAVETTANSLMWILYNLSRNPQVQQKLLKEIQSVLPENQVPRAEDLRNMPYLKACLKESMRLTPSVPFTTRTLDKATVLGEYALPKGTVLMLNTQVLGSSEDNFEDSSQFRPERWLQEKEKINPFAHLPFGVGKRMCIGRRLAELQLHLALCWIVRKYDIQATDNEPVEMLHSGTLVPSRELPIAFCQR
Kind of assay: CYP24 enzyme assay (induced HPK1A-ras cells). The class given is cell-based. As to conditions: HPK1A-ras cells induced with 1,25(OH)2D3; [3H]-1,25(OH)2D3 substrate, 2 hour. Here is the method:
1.25(OH)2D3 10^−5 M (Sigma, St. Louis, Mo.);
Preparation of 10^−5 M working solution is as follows:
Dissolve 1 mg of 1,25(OH)2D3 into 480 μl of isopropanol to make 5×10^−3 M stock solution. Store at −70° C. until needed. Aliquot 1 μl of 1.25(OH)2D3 5×10^−3 M stock solution to 499 μl of isopropanol to make 1.25(OH)2D3 10^−5 working solution. Store at −20° C. until needed. […] Induction of HPKIA-ras cells (The day before assay) • When the HPK1A-ras cells were 80-90% confluent, added 1 μL 10^−5 M 1.25(OH)2D3 to 1 mL medium in the plate (final concentration is 10^−8 M). • 2. Preparation of cell suspension • After 18 to 20 hours induction, removed the medium and washed the cell twice with PBS. Then tripsinized the cells from plate, centrifuged (2,000 rpm, 5 min) and suspended cells pellet in DMEM medium+1% BSA. • Counted the cells and adjusted cells density to 250,000/150 μL, added 150 μL cell suspension to each well in 48-well plate (including 3 wells as a no cell control, and 3 well cells without drug or inhibitor as controls). • 3. […] Kept the plate in 37° C. for 10 min. • 4. Preparation of substrate • For each ml required, added 972 μl of DMEM+1% BSA medium, 20 μl of 3H-1,25(OH)2D3, and 8 μl of 100 nM DPPD to a tube and vortexed. • 5. Incubation • Added 25 μL substrate to each well, incubated the plate at 37° C. for 2 hour. • Added 25 μL substrate to counting plate (2 well) as a total count. • 6. Lipid Extraction and Counting • Added 500 μL methanol to each well to stop the reaction, transferred them to tube. • Added 250 μL dichloromethane and vortex. • Added 250 μL dichloromethane and […] saturated KCI, and vortex. • Centrifuged at 4000 rpm for 5 min. • Transferred 100 μL of aqueous phase (upper phase) to counting plastic counting plate. Added 600 μL of scintillation fluid to each well. Counted the plate in scintillation counter. • 7. Calculation Enzyme Activity • CPM of cell control after subtraction of CPM of non-cell control (NCC) was as 100% enzyme activity.
• Dilution of test compounds • Stock 10^−3 M

In a further assay the target is T2, VDR (Homo sapiens, UniProt P11473).
T2 construct: purchased Biomol
T2 sequence (P11473 1-427): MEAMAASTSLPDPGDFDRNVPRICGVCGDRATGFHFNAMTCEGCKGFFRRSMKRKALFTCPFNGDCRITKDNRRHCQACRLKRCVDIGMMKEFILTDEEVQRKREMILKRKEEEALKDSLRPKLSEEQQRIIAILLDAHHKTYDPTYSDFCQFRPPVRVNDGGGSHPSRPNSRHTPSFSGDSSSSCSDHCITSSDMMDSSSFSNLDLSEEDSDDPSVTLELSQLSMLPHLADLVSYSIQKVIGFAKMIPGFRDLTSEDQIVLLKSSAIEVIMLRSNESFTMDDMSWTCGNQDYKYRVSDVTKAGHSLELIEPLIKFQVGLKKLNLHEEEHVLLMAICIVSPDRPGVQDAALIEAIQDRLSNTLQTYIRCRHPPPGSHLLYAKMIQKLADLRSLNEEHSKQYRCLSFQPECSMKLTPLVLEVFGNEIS
Put plainly: VDR binding assay. Conditions: B50: displacement of 50 percent [3H]-1,25(OH)2D3 from human recombinant VDR. Here is the method:
1. VDR 9.4 pmol/μl (human, recombinant, Biomol).
4. TEK300 • Tris-HCI 50 mM • EDTA 1.5 mM • KCI 300 mM Adjust pH to 7.4 (25° C.)
3. Preparation of 1.25(OH)2D3 and test compounds in ethanol
1 μl stock VDR in 2.5 ml TEDK300/Gelatin solution (500 μl/tube), (keep on ice)
• Label tubes according to the following chart, each in triplicate:
• Mixed all tubes via vortex and incubated at room temperature for 1 hour. Added 10 μL of 3H-1,25(OH)2D3 Working Dilution, mixed by vortex and incubated at room temperature for 1 hour 2. Sample processing • Thirty minutes before addition, put Charcoal/Dextran Solution on ice with continuous mixing. Added […] of Charcoal/Dextran Solution to each tube, mixed well and incubated on ice for 30 minutes. Centrifuged @ 2000 rpm for 10 minutes at 4° C. 3. Counting • Pipetted 100 μL of the upper, aqueous phase to a 24 well scintillation counting plate and added 600 μL scintillation fluid per well, covered and mixed well. Counted the plate using a scintillation counter for 5 min/sample. (iv) Calculations: • The amount of 1,25(OH)2D3 to displace 50 percent [^3H]-1,25(OH)2D3 from VDR was calculated as B50 for 1,25(OH)2D3. The VDR binding of other compounds was calculated as B50 relative to a value of 1 for 1,25(OH)2D3.

Assay [2] addresses T1, CYP24. Put plainly: In vitro test of ability to inhibit specifically CYP24 (standard protocol). The class given is cell-based. Conditions: ketoconazole as control standard.

This is an account of results in patent publication US7973024B2, “24-sulfoximine vitamin D3 compounds” (Cyctochroma Inc., priority 2002, dated 2011).

One may read the IC50 as the point on the concentration scale where inhibition reaches its midpoint.

For `C=C1/C(=C\C=C2/CCC[C@]3(C)[C@@H]([C@H](C)CCS(=N)(=O)c4ccccc4)CC[C@@H]23)C[C@@H](O)C[C@@H]1O` (single isomer, unassigned) [I(a)], the 50% inhibitory concentration (IC50) against CYP24 [1] was 5 nM; on VDR, more than 2000 nM.
As for `C=C1/C(=C\C=C2/CCC[C@]3(C)[C@@H]([C@H](C)CCS(=O)(=NC)c4ccccc4)CC[C@@H]23)C[C@@H](O)C[C@@H]1O` (single isomer, unassigned) [I(e)], the results for the concentration for half-maximal inhibition (IC50) against CYP24 [1] and at VDR were 66 nM and more than 2000 nM, respectively. Further, the “selective inhibition of CYP24” value on CYP24 [2] is listed as “selectively inhibit”.
`C=C1/C(=C\C=C2/CCC[C@]3(C)[C@@H]([C@H](C)CCS(=O)(=NC)c4ccccc4)CC[C@@H]23)C[C@@H](O)C[C@@H]1O` (single isomer, unassigned) [I(g)]: on CYP24 [1], the IC50 is 20 nM. For the same compound, the “selective inhibition of CYP24” value on CYP24 [2] is recorded as “selectively inhibit”.
Regarding `C[C@H](CCS(=N)(=O)c1ccccc1)[C@H]1CC[C@H]2/C(=C/C=C3C[C@@H](O)C[C@H](O)C3)CCC[C@]12C` (single isomer, unassigned) [I(i), 24-Phenyl Sulfoximine 19-Nor-Vitamin-D3], the concentration for half-maximal inhibition (IC50) on VDR was more than 2000 nM. The “selective inhibition of CYP24” value on CYP24 [2] was “selectively inhibit”.
